{"source": "patent US7553861B2", "about": "“Dipeptidyl peptidase-IV inhibitors” (Alantos Pharmaceuticals Holding, Inc., priority 2005, dated 2009)"}
{"target": "T1, DPP-IV (Homo sapiens, UniProt P27487)", "T1 construct": "purchased R&D Systems GmbH, Germany", "T1 sequence (P27487 whole entry)": "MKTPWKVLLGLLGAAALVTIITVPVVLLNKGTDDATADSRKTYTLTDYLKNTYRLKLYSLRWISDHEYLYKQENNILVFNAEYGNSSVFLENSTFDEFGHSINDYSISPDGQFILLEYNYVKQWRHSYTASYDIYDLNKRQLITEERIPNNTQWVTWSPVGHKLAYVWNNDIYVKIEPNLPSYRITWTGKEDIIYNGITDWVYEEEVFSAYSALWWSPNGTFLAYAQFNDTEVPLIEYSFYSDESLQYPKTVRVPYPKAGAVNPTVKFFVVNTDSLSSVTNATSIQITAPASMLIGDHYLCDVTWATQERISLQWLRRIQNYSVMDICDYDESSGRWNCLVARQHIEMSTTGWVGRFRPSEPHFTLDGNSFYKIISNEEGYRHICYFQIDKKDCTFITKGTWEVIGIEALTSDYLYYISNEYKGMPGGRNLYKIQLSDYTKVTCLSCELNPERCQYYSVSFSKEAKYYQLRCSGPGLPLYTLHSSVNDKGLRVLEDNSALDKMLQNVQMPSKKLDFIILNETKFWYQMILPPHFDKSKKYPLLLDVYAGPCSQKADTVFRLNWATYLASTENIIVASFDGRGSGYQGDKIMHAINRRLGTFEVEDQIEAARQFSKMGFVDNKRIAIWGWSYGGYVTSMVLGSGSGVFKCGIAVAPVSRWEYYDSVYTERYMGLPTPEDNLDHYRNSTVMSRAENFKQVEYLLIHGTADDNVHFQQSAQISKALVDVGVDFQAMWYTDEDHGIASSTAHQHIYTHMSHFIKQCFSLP", "experiment": "Assay for determining DP-IV inhibition (fluorometric, Gly-Pro-AMC substrate)", "type": "biochemical", "details": "Inhibition of DPP-IV, K(i) calculated from IC(50) with IC(50)=K(i)(1+[S]/Km), pH 8.0", "description": "The inhibitory activity of compounds against DPP-IV can be determined by in vitro assay systems, which are themselves well established in the art. The assay results given in Table 5 were obtained according to the following method, employing a modified version of the assay described by Leiting et al., in an article entitled “Catalytic properties and inhibition of proline-specific dipeptidyl peptidases II, IV and VII” in Biochem. J. Vol. 371, pages 525-532 (2003):\nDPP-IV activity was determined fluorometrically with Gly-Pro-AMC (where AMC stands for 7-amido-4-methylcoumarin, Bachem AG, Switzerland) as substrate. The reaction mixture contained 10 μl of 1 ng/μl DPP-IV (R&D Systems GmbH, Germany) and 80 μl of 25 mM Tris/HCl buffer, pH 8.0. Compounds were supplied as DMSO stock solutions and diluted in assay buffer to a maximal DMSO concentration of 1% in the assay. Prior to start of the reaction, the mixture was incubated for 30 min at room temperature. The reaction was started by addition of 10 μl of 100 μM substrate solution.\nThe fluorescence intensity was measured at excitation and emission wavelengths of 355 and 460 nm, respectively, in a FluoStar Galaxy Multiwell Plate (BMG Labtech, Germany). Fluorescence was determined 3 and 4 minutes after start of reaction and increase in fluorescence was used for determination of enzymatic activity. IC(50) values of tested compounds were determined via plotting enzymatic activity versus concentration of test compound and determining the concentration of test compound which yields a 50% inhibition of enzymatic activity.\nK(i) values were calculated using the Michaelis-Menten equation for competitive inhibition: IC(50)=K(i)(1+[S]/Km)", "units": {"Ki": "nM"}}
{"smiles": "N#C[C@@H]1CCCN1C(=O)[C@@H](N)CN1C(=O)[C@@H]2C[C@H]1CN2C(=O)Cc1cccs1", "note": "[Example 70]", "Ki": "6 to 50"}
{"smiles": "N#C[C@@H]1CCCN1C(=O)[C@@H](N)CN1C(=O)[C@@H]2C[C@H]1CN2C(=O)c1cnccn1", "note": "[Example 71]", "Ki": "6 to 50"}
{"smiles": "N#C[C@@H]1CCCN1C(=O)[C@@H](N)CN1C(=O)[C@@H]2C[C@H]1CN2C(=O)CC1c2ccccc2C=Cc2ccccc21", "note": "[Example 72]", "Ki": "< 6"}
{"smiles": "N#C[C@@H]1CCCN1C(=O)[C@@H](N)CN1C(=O)[C@@H]2C[C@H]1CN2C(=O)OCC1c2ccccc2-c2ccccc21", "note": "[Example 73]", "Ki": "6 to 50"}
{"smiles": "Cc1ccc(S(=O)(=O)NC(=O)N2C[C@@H]3C[C@H]2C(=O)N3C[C@H](N)C(=O)N2CCC[C@H]2C#N)cc1", "note": "[Example 74]", "Ki": "51 to 500"}
{"smiles": "CC(C)(C)NC(=O)N1C[C@@H]2C[C@H]1C(=O)N2C[C@H](N)C(=O)N1CCC[C@H]1C#N", "note": "[Example 75]", "Ki": "51 to 500"}
{"smiles": "N#C[C@@H]1CCCN1C(=O)[C@@H](N)CN1C[C@@H]2C[C@H]1CN2C(=O)Cc1cccs1", "note": "[Example 76]", "Ki": "6 to 50"}
{"smiles": "N#C[C@@H]1CCCN1C(=O)[C@@H](N)CN1C[C@@H]2C[C@H]1CN2S(=O)(=O)c1cccc(F)c1", "note": "[Example 77]", "Ki": "< 6"}
{"smiles": "N#C[C@@H]1CCCN1C(=O)[C@@H](N)CN1C[C@@H]2C[C@H]1CN2c1cccc(F)c1", "note": "[Example 78]", "Ki": "6 to 50"}
